Source: BindingDB's records for doi:10.1016/s0014-2999(00)00916-x (The Royal Danish School of Pharmacy, 2001)

Tests used:
Glutamate receptor 3 = Glutamate receptor 3 (Rattus norvegicus, UniProt P19492)
[1] = target: Glutamate receptor ionotropic, kainate 1 (Rattus norvegicus, UniProt P22756)
[2] = target: Glutamate receptor ionotropic, NMDA 1 (Rattus norvegicus, UniProt P35439)

Sequence of Glutamate receptor 3 (P19492 whole entry): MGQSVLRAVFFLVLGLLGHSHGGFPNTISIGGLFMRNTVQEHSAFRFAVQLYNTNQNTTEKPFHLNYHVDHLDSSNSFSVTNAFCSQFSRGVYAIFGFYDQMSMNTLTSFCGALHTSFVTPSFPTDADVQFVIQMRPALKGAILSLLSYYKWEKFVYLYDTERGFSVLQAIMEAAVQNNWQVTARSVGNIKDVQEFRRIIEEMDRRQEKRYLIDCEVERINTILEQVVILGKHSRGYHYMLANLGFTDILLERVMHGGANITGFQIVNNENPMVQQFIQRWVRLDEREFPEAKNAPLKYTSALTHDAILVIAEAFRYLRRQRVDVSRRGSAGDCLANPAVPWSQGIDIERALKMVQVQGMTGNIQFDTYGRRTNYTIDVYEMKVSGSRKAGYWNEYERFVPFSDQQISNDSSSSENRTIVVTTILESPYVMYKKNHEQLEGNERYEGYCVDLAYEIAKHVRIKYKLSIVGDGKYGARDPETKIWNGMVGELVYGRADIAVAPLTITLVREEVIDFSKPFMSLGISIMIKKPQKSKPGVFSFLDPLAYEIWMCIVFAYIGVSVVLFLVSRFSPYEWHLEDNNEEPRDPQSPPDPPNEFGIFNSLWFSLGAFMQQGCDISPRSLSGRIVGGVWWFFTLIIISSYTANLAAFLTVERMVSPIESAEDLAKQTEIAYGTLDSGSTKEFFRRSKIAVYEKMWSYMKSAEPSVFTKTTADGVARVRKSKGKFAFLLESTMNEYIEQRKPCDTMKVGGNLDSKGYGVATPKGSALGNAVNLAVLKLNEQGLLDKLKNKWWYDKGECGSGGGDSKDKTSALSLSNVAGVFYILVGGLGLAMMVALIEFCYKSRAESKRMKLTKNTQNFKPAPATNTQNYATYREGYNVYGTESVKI
Sequence of Glutamate receptor ionotropic, kainate 1 (P22756 whole entry): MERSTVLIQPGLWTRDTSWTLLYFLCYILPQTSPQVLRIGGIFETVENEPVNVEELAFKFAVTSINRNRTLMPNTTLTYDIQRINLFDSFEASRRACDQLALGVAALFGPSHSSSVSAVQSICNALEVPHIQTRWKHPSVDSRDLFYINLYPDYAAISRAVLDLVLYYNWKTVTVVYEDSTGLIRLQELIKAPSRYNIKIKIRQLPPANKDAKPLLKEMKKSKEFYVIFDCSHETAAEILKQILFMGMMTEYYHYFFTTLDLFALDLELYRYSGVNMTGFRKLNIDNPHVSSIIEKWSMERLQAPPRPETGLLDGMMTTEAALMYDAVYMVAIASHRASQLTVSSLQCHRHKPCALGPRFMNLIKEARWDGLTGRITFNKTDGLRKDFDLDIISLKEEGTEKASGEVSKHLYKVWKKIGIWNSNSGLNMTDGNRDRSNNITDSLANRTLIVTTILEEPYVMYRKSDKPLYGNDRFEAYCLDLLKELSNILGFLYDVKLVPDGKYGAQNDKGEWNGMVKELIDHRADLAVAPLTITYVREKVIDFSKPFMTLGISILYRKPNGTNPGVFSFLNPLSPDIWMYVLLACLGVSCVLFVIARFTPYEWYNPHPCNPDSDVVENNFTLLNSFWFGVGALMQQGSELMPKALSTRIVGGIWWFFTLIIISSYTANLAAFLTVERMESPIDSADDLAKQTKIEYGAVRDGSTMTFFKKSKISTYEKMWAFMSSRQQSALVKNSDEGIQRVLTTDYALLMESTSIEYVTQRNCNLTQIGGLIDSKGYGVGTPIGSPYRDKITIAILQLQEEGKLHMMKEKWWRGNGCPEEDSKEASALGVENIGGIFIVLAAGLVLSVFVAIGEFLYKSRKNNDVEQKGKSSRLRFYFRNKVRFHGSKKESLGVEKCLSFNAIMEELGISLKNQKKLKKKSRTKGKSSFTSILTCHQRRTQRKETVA

| Structure (SMILES) | Ki (Glutamate receptor 3) | Ki [1] | Ki [2] |
| --- | --- | --- | --- |
| CC(C)(C)c1o[nH]c(=O)c1C[C@H](N)C(=O)O [ATPA-R] | > 10 µM |  |  |
| CC(C)(C)c1o[nH]c(=O)c1C[C@@H](N)C(=O)O [ATPA-S] | 1.8 µM |  |  |
| CC(C)(C)c1onc(O)c1CC(N)C(=O)O (stereo not given) [NSC_2253] | > 10 µM |  |  |
| CC(C)(C)c1snc(O)c1CC(N)C(=O)O (stereo not given) [Thio-ATPA-S] |  | > 10 µM | > 10 µM |
